Experimental data from ChEMBL document CHEMBL4184112, “Spiroorthoester group-containing pregnane glycosides from the root barks of Periploca chrysantha and their inhibitory activities against the proliferation of B and T lymphocytes” (Bioorg Med Chem Lett, 2018).

Assays:
T-cell = experiment: Inhibition of ConA-induced T lymphocytes (unknown origin) proliferation; type: functional, cell-based
[1] = Selectivity index, ratio of CC50 for lymphocytes (unknown origin) to IC50 for LPS-induced B lymphocytes (unknown origin) proliferation; type: toxicity; conditions: read-out: Ratio CC50/IC50
[2] = Inhibition of LPS-induced B lymphocytes (unknown origin) proliferation; type: functional
[3] = Selectivity index, ratio of CC50 for lymphocytes (unknown origin) to IC50 for ConA-induced T lymphocytes (unknown origin) proliferation; type: toxicity; conditions: read-out: Ratio CC50/IC50
[4] = Cytotoxicity against lymphocytes (unknown origin) assessed as decrease in cell viability; type: cell-based, Lymphocyte

SMILES | IC50 (T-cell) | selectivity ratio [1] | IC50 [2] | selectivity ratio [3] | CC50 [4]
CO[C@H]1[C@@H](O)[C@@H](C)O[C@@H](O[C@H]2[C@@H](OC)C[C@H](O[C@H]3[C@@H](OC)C[C@H](O[C@H]4[C@@H](O)C[C@H](O[C@@H]5[C@@H](C)O[C@@]6(C[C@H]5OC)OCO[C@@H]5C[C@H](O[C@@H](C)[C@@]7(O)CC[C@H]8[C@@H]9CC=C%10C[C@@H](O)CC[C@]%10(C)[C@H]9CC[C@@]87C)O[C@H](C)[C@H]5O6)O[C@@H]4C)O[C@@H]3C)O[C@@H]2C)[C@@H]1O | 470 nM | > 267 | 750 nM | > 426 | > 200000 nM
CO[C@H]1[C@@H](O)[C@@H](C)O[C@@H](O[C@H]2[C@@H](OC)C[C@H](O[C@H]3[C@H](O)C[C@H](O[C@H]4[C@@H](OC)C[C@H](O[C@@H]5[C@@H](C)O[C@@]6(C[C@H]5OC)OCO[C@@H]5C[C@H](O[C@@H](C)[C@@]7(O)CC[C@H]8[C@@H]9CC=C%10C[C@@H](O)CC[C@]%10(C)[C@H]9CC[C@@]87C)O[C@H](C)[C@H]5O6)O[C@@H]4C)O[C@@H]3C)O[C@@H]2C)[C@@H]1OC(C)=O | 180 nM | 110 | 1130 nM | 706 | 124000 nM
CO[C@H]1C[C@H](O[C@H]2[C@@H](OC)C[C@H](O[C@H]3[C@H](O)C[C@H](O[C@H]4[C@@H](O)C[C@H](O[C@@H]5[C@@H](C)O[C@@]6(C[C@H]5OC)OCO[C@@H]5C[C@H](O[C@@H](C)[C@@]7(O)CC[C@H]8[C@@H]9CC=C%10C[C@@H](O)CC[C@]%10(C)[C@H]9CC[C@@]87C)O[C@H](C)[C@H]5O6)O[C@@H]4C)O[C@@H]3C)O[C@@H]2C)O[C@H](C)[C@H]1OC(C)=O | 1470 nM | > 145 | 1740 nM | > 136 | > 200000 nM
CO[C@H]1[C@@H](O)[C@@H](C)O[C@@H](O[C@H]2[C@@H](OC)C[C@H](O[C@H]3[C@@H](OC)C[C@H](O[C@H]4[C@@H](OC)C[C@H](O[C@@H]5[C@@H](C)O[C@@]6(C[C@H]5OC)OCO[C@@H]5C[C@H](O[C@@H](C)[C@@]7(O)CC[C@H]8[C@@H]9CC=C%10C[C@@H](OC=O)CC[C@]%10(C)[C@H]9CC[C@@]87C)O[C@H](C)[C@H]5O6)O[C@@H]4C)O[C@@H]3C)O[C@@H]2C)[C@@H]1O | 420 nM | 170 | 860 nM | 347 | 146000 nM
